Assay results from patent publication US20230265151A1, “GIP/GLP1 CO-AGONIST COMPOUNDS” (priority 2020, published 2023).
Like-named read-outs stand apart in the source and are kept apart here. *1 amine or outer side, *2 acyl side, *3 side chain or, on linkers, in order; H or OH if unused. Where a SMILES comes first, the peptide text is derived from it. Side-chain parts run from the residue outwards. [ ]: non-standard residue; d: D form. The star is where a group is joined. αMePhe(2-F) = C[C@](N)(Cc1ccccc1F)C(=O)O; γGlu = O=C(O)[C@H](CCC(=O)[*:2])N[*:1]; C14 diacid = O=C(O)CCCCCCCCCCCCC(=O)*; αMeY = C[C@](N)(Cc1ccc(O)cc1)C(=O)O; 4Pal = N[C@@H](Cc1ccncc1)C(=O)O; αMeL = CC(C)C[C@](C)(N)C(=O)O; Orn = NCCC[C@H](N)C(=O)O; AEEA = NCCOCCOCC(=O)O; Aib = CC(C)(N)C(=O)O

What was measured:
Assay type in all cases: cell-based
hGIPR = target: T1, hGIPR (Homo sapiens, UniProt P48546); assay: Functional cAMP formation (HTRF) in HEK-293 clonal cells expressing hGIPR, 0.1% bovine casein, without or with 1.0% human serum albumin; conditions: for EC50: geometric mean, read-out: hGIPR EC50, nM (SEM, n); for Emax: read-out: hGIPR Emax, % ± SEM
T1 construct: expressed in transfected cells
T1 sequence (P48546 22-466): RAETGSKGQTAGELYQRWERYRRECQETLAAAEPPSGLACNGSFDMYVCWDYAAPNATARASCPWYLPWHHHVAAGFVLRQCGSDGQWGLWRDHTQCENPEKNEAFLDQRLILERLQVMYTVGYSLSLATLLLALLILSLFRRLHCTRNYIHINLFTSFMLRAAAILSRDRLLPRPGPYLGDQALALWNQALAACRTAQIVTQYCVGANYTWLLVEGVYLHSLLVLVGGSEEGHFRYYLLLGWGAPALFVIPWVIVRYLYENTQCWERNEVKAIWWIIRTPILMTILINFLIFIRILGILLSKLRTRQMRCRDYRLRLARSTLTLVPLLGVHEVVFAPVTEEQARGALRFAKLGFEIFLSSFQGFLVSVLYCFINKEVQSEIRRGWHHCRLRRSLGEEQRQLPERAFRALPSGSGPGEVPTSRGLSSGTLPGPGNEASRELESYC
Outline: (§1)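 Readings of the HTRF 665/620 nm ratio, which falls as cAMP rises, were converted to nM cAMP using a standard curve after 30 min peptide exposure at 37° C.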

hGCGR = target: T2, hGCGR (Homo sapiens, UniProt P47871); assay: Functional cAMP formation (HTRF) in HEK-293 clonal cells expressing hGCGR, 0.1% bovine casein, without or with 1.0% human serum albumin; conditions: geometric mean, read-out: hGCGR EC50, nM (SEM, n)
T2 construct: expressed in transfected cells
Outline: as §1

hGLP-1R = hGLP-1R (Homo sapiens, UniProt P43220); assay: Functional cAMP formation (HTRF) in HEK-293 clonal cells expressing hGLP-1R, 0.1% bovine casein, without or with 1.0% human serum albumin; set-up: expressed in transfected cells; conditions: for EC50: geometric mean, read-out: hGLP-1R EC50, nM (SEM, n); for Emax: read-out: hGLP-1R Emax, % ± SEM
Outline: as §1

[1] = 0.1% bovine casein and 1.0% human serum albumin, 37° C.
[2] = HEK293, 0.1% bovine casein and 1.0% human serum albumin, 37° C., percent of maximal response to GIP(1-42)NH2
[3] = cAMP, incubated at 37° C., 0.1% bovine casein (no human serum albumin)
[4] = HEK293, 0.1% bovine casein and 1.0% human serum albumin, 37° C., percent of maximal response to GLP-1(7-36)NH2
[5] = HEK293, percent of maximal response to GIP(1-42)NH2, 37° C., 0.1% bovine casein, arithmetic mean

Chain of hGLP-1R (P43220 24-463): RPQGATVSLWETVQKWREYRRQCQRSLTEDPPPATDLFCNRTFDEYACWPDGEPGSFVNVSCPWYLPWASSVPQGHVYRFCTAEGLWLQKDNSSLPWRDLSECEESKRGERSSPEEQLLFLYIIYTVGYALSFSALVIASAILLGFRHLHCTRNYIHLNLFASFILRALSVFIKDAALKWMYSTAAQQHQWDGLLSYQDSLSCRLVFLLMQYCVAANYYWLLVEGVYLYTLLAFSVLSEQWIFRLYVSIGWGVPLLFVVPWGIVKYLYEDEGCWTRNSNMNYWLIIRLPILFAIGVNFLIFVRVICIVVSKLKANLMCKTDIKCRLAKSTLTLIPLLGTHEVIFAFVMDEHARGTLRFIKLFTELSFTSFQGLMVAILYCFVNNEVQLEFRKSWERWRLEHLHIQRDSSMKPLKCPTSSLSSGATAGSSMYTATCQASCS
T2 sequence (P47871 26-477): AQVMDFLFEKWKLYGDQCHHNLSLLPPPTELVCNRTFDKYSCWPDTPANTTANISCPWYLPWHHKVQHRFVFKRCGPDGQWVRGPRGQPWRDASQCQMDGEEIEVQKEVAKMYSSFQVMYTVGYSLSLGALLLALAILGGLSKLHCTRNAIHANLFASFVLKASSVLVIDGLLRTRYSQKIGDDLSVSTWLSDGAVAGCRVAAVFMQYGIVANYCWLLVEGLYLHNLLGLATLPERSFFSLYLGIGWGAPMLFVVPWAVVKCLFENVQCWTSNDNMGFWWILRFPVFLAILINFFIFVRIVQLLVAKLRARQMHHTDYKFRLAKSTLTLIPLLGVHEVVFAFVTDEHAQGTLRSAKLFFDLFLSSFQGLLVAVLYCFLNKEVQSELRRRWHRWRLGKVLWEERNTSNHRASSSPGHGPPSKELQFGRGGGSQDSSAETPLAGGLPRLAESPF

Row | EC50 (hGLP-1R; [3]) | Emax (hGIPR; [5]) | Emax (hGLP-1R; HEK293, percent of maximal response to GLP-1(7-36)NH2, 37° C., 0.1% bovine casein, arithmetic mean) | SMILES | EC50 (hGIPR; [1]) | Emax (hGIPR; [2]) | EC50 (hGCGR; [1]) | EC50 (hGCGR; [3]) | EC50 (hGLP-1R; [1]) | Emax (hGLP-1R; [4]) | EC50 (hGIPR; [3])
1 |  |  |  | CC[C@H](C)[C@H](NC(=O)[C@H](CC(C)C)NC(=O)[C@](C)(Cc1ccc(O)cc1)NC(=O)[C@@H](CCC(=O)O)NC(=O)[C@@H](NC(=O)[C@H](Cc1ccccc1)NC(=O)[C@H](CCCN)NC(=O)C(C)(C)NC(=O)[C@H](CCC(N)=O)NC(=O)[C@H](C)NC(=O)[C@H](CCCCNC(=O)COCCOCCNC(=O)COCCOCCNC(=O)CC[C@H](NC(=O)CCCCCCCCCCCCC(=O)O)C(=O)O)NC(=O)[C@H](CCCN)NC(=O)[C@H](CC(=O)O)NC(=O)[C@H](CC(C)C)NC(=O)[C@](C)(CC(C)C)NC(=O)[C@@H](NC(=O)[C@H](CO)NC(=O)[C@H](Cc1ccncc1)NC(=O)[C@H](CC(=O)O)NC(=O)[C@H](CO)NC(=O)[C@@H](NC(=O)[C@](C)(Cc1ccccc1F)NC(=O)[C@@H](NC(=O)CNC(=O)[C@H](CCC(=O)O)NC(=O)C(C)(C)NC(=O)[C@@H](N)Cc1ccc(O)cc1)[C@@H](C)O)[C@@H](C)O)[C@@H](C)CC)[C@@H](C)CC)C(=O)N[C@@H](CCC(=O)O)C(=O)NCC(=O)NCC(=O)N[C@@H](CCCCNC(=O)COCCOCCNC(=O)COCCOCCNC(=O)CC[C@H](NC(=O)CCCCCCCCCCCCC(=O)O)C(=O)O)C(=O)N[C@@H](CO)C(=O)N[C@@H](CO)C(=O)NCC(=O)N[C@@H](C)C(=O)N1CCC[C@H]1C(=O)N1CCC[C@H]1C(=O)N1CCC[C@H]1C(=O)N[C@@H](CO)C(N)=O [Example 150] | 0.35 nM | 81.3 ± 3.18% | > 9950 nM | > 9950 nM | 11 nM | 100 ± 3.8% | 
2 | 1.1 nM | 97.8 ± 2.74% | 91.8 ± 4.63% | CC[C@H](C)[C@H](NC(=O)[C@H](CC(C)C)NC(=O)[C@](C)(Cc1ccc(O)cc1)NC(=O)[C@@H](CCC(=O)O)NC(=O)[C@@H](NC(=O)[C@H](Cc1ccccc1)NC(=O)[C@H](CCC(=O)O)NC(=O)C(C)(C)NC(=O)[C@H](CCC(N)=O)NC(=O)[C@H](C)NC(=O)[C@H](CCCCNC(=O)COCCOCCNC(=O)COCCOCCNC(=O)CC[C@H](NC(=O)CCCCCCCCCCCCC(=O)O)C(=O)O)NC(=O)[C@H](CCCN)NC(=O)[C@H](CC(=O)O)NC(=O)[C@H](CC(C)C)NC(=O)[C@](C)(CC(C)C)NC(=O)[C@@H](NC(=O)[C@H](CO)NC(=O)[C@H](Cc1ccncc1)NC(=O)[C@H](CC(=O)O)NC(=O)[C@H](CO)NC(=O)[C@@H](NC(=O)[C@](C)(Cc1ccccc1F)NC(=O)[C@@H](NC(=O)CNC(=O)[C@H](CCC(=O)O)NC(=O)C(C)(C)NC(=O)[C@@H](N)Cc1ccc(O)cc1)[C@@H](C)O)[C@@H](C)O)[C@@H](C)CC)[C@@H](C)CC)C(=O)N[C@@H](CCC(=O)O)C(=O)NCC(=O)NCC(=O)N[C@@H](CCCCNC(=O)COCCOCCNC(=O)COCCOCCNC(=O)CC[C@H](NC(=O)CCCCCCCCCCCCC(=O)O)C(=O)O)C(=O)N[C@@H](CO)C(=O)N[C@@H](CO)C(=O)NCC(=O)N[C@@H](CCCN)C(=O)N1CCC[C@H]1C(=O)N1CCC[C@H]1C(=O)N1CCC[C@H]1C(=O)N[C@@H](CO)C(N)=O [Example 153] (H-Y[Aib]EGT[αMePhe(2-F)]TSD[4Pal]SI[αMeL]LD[Orn]K([AEEA-AEEA-γGlu-C14 diacid])AQ[Aib]EFI[dE][αMeY]LIEGGK([AEEA-AEEA-γGlu-C14 diacid])SSG[Orn]PPPS-NH2) | 1.15 nM | 94.1 ± 3.21% | > 9950 nM | > 9950 nM | 40.8 nM | 98.2 ± 5.4% | 0.0277 nM
3 | 1.69 nM | 96.6 ± 3.26% |  | CC[C@H](C)[C@H](NC(=O)[C@H](CC(C)C)NC(=O)[C@](C)(Cc1ccc(O)cc1)NC(=O)[C@@H](CCC(=O)O)NC(=O)[C@@H](NC(=O)[C@H](Cc1ccccc1)NC(=O)[C@H](CCC(=O)O)NC(=O)C(C)(C)NC(=O)[C@H](CCC(N)=O)NC(=O)[C@H](C)NC(=O)[C@H](CCCCNC(=O)COCCOCCNC(=O)COCCOCCNC(=O)CC[C@H](NC(=O)CCCCCCCCCCCCC(=O)O)C(=O)O)NC(=O)[C@H](CCCN)NC(=O)[C@H](CC(=O)O)NC(=O)[C@H](CC(C)C)NC(=O)[C@](C)(CC(C)C)NC(=O)[C@@H](NC(=O)[C@H](CO)NC(=O)[C@H](Cc1ccncc1)NC(=O)[C@H](CC(=O)O)NC(=O)[C@H](CO)NC(=O)[C@@H](NC(=O)[C@](C)(Cc1ccccc1F)NC(=O)[C@@H](NC(=O)CNC(=O)[C@H](CCC(=O)O)NC(=O)C(C)(C)NC(=O)[C@@H](N)Cc1ccc(O)cc1)[C@@H](C)O)[C@@H](C)O)[C@@H](C)CC)[C@@H](C)CC)C(=O)N[C@@H](CCC(=O)O)C(=O)NCC(=O)NCC(=O)N[C@@H](CCCCNC(=O)COCCOCCNC(=O)COCCOCCNC(=O)CC[C@H](NC(=O)CCCCCCCCCCCCC(=O)O)C(=O)O)C(=O)N[C@@H](CO)C(=O)N[C@@H](CO)C(=O)NCC(=O)N[C@@H](C)C(=O)N1CCC[C@H]1C(=O)N1CCC[C@H]1C(=O)N1CCC[C@H]1C(=O)N[C@@H](CCCN)C(N)=O [Example 154] |  | 93 ± 4.96% | > 9950 nM | > 9950 nM | 70.5 nM |  | 

Row | SMILES | EC50 (hGLP-1R; [3]) | Emax (hGIPR; [5]) | Emax (hGLP-1R; HEK293, percent of maximal response to GLP-1(7-36)NH2, 37° C., 0.1% bovine casein, arithmetic mean) | EC50 (hGIPR; [1]) | Emax (hGIPR; [2]) | EC50 (hGCGR; [1]) | EC50 (hGCGR; [3]) | EC50 (hGLP-1R; [1]) | Emax (hGLP-1R; [4]) | EC50 (hGIPR; [3])
4 | CC[C@H](C)[C@H](NC(=O)[C@H](CC(C)C)NC(=O)[C@](C)(Cc1ccc(O)cc1)NC(=O)[C@@H](CCC(=O)O)NC(=O)[C@@H](NC(=O)[C@H](Cc1ccccc1)NC(=O)[C@H](CCC(=O)O)NC(=O)C(C)(C)NC(=O)[C@H](CCC(N)=O)NC(=O)[C@H](C)NC(=O)[C@H](CCCCNC(=O)COCCOCCNC(=O)COCCOCCNC(=O)CC[C@H](NC(=O)CCCCCCCCCCCCC(=O)O)C(=O)O)NC(=O)[C@H](CCCN)NC(=O)[C@H](CC(=O)O)NC(=O)[C@H](CC(C)C)NC(=O)[C@](C)(CC(C)C)NC(=O)[C@@H](NC(=O)[C@H](CO)NC(=O)[C@H](Cc1ccncc1)NC(=O)[C@H](CC(=O)O)NC(=O)[C@H](CO)NC(=O)[C@@H](NC(=O)[C@](C)(Cc1ccccc1F)NC(=O)[C@@H](NC(=O)CNC(=O)[C@H](CCC(=O)O)NC(=O)C(C)(C)NC(=O)[C@@H](N)Cc1ccc(O)cc1)[C@@H](C)O)[C@@H](C)O)[C@@H](C)CC)[C@@H](C)CC)C(=O)N[C@@H](CCCN)C(=O)NCC(=O)NCC(=O)N[C@@H](CCCCNC(=O)COCCOCCNC(=O)COCCOCCNC(=O)CC[C@H](NC(=O)CCCCCCCCCCCCC(=O)O)C(=O)O)C(=O)N[C@@H](CO)C(=O)N[C@@H](CO)C(=O)NCC(=O)N[C@@H](C)C(=O)N1CCC[C@H]1C(=O)N1CCC[C@H]1C(=O)N1CCC[C@H]1C(=O)N[C@@H](CO)C(N)=O [Example 151] | 0.546 nM |  |  | 0.306 nM | 87.5 ± 3.78% | > 9950 nM | > 9950 nM | 17.3 nM | 112 ± 8.42% | 0.0197 nM
